# US20090306392A1, “GSM INTERMEDIATES” (priority 2007, published 2009)
# System: γ-secretase
# Assay: Screening for γ-secretase-modulating activity in SKNBE2 cells carrying APP 695-wild type
# Type: cell-based
# Conditions: SKNBE2 cells carrying the APP 695-wild type; read-out: EC 50 WTAPP
row,EC50 [nM],Compound
1,250,"CC(C)CCN(Cc1cc(-c2ccc(C(F)(F)F)cc2)cc(C(CC(C)C)C(=O)O)c1)Cc1cc(C(F)(F)F)cc(C(F)(F)F)c1 (stereo not drawn) [Example 30, 2-(5-{[(3,5-Bis-trifluoromethyl-benzyl)-(3-methyl-butyl)-amino]-methyl}-4′-trifluoromethyl-biphenyl-3-yl)-4-methyl-pentanoic Acid]"
2,290,"CC(C)CC(C(=O)O)c1cc(Nc2ccc(C(C)C)cc2)cc(-c2ccc(C(F)(F)F)cc2)c1 (stereo not drawn) [Example 11, 2-[5-(4-Isopropyl-phenylamino)-4′-trifluoromethyl-biphenyl-3-yl]-4-methyl-pentanoic Acid]"
3,1520,"CC(C)C[C@H](C(=O)O)c1cc(OCc2cc(F)cc(F)c2)cc(-c2ccc(C(F)(F)F)cc2)c1 [Example 2, (S)-2-[5-(3,5-Difluoro-benzyloxy)-4′-trifluoromethyl-biphenyl-3-yl]-4-methyl-pentanoic Acid]"
4,510,"CC(C)CC(C(=O)O)c1cc(-c2ccc(C(F)(F)F)cc2)cc(C2CCCN(Cc3ccc(C(F)(F)F)cc3)C2)c1 (stereo not drawn) [Example 36, 4-Methyl-2-{4′-trifluoromethyl-5-[1-(4-trifluoromethyl-benzyl)-piperidin-3-yl]-biphenyl-3-yl}-pentanoic Acid]"
5,220,"CC(C)CC(C(=O)O)c1cc(-c2ccc(C(F)(F)F)cc2)cc(-c2cc(F)nc(F)c2)c1 (stereo not drawn) [Example 19, 2-[5-(2,6-Difluoro-pyridin-4-yl)-4′-trifluoromethyl-biphenyl-3-yl]-4-methyl-pentanoic Acid]"

row,Compound,EC50 [nM]
1,(S*)4-Methyl-2-(5-{1-[4-methyl-1-(4-trifluoromethyl-phenyl)-pentyl]-piperidin-3-yl}-4′-trifluoromethyl-biphenyl-3-yl)-pentanoic Acid [Example 38],450
